Source: patent US6737383B1, “Herbicidal oxadiazolidines” (priority 1999, dated 2004)

Experiments:
cocklebur = experiment: Test B pre/postemergence cocklebur; type: in vivo, Xanthium strumarium; details: for Cocklebur plant response rating (0 to 10 scale): 0 is no effect
Summary of the method: (§1)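 Response is a visual 0-to-10 score relative to untreated plants, where 0 means no effect and 10 means complete control, taken twelve to sixteen days after application. Treatments went onto soil at planting and onto foliage of 1- to 4-leaf plants, using a surfactant-containing non-phytotoxic solvent.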

sugar beet = experiment: Test B pre/postemergence sugar beet; type: in vivo, Beta vulgaris; details: for Sugarbeets plant response rating (0 to 10 scale): 0 is no effect
Summary of the method: as §1

smallflower flatsedge = experiment: Test B flood test smallflower flatsedge; type: in vivo, Cyperus difformis
Summary of the method: (§2)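 Flood test on plants grown to the 2-leaf stage; treated plants kept in greenhouse twelve to sixteen days, then visually rated against controls on a 0 (no effect) to 10 (complete control) scale.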

bamyardgrass = experiment: Test B flood test barnyardgrass; type: in vivo, Echinochloa crus-galli; details: for Plant response rating, Barnyardgrass: Rate 500 g/ha
Summary of the method: as §2

winter wheat [1] = experiment: Test E winter wheat; type: in vivo, Triticum aestivum; details: Postemergence; for Plant response rating, Wheat (winter): 0 to 100 scale
Summary of the method: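 Greenhouse test: for postemergence, foliar application at 1- to 4-leaf stage; compound in non-phytotoxic solvent with surfactant. Rating is visual, relative to untreated controls, about 21 to 28 days after treatment.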

blackgrass = experiment: Test E blackgrass; type: in vivo, Alopecurus myosuroides; details: Preemergence; for Blackgrass plant response rating (0 to 100 scale): Rate 250 g/ha; for Plant response rating, Blackgrass: 0 to 100 scale where 0 is no effect and 100 is complete control
green foxtail = experiment: Test E green foxtail; type: in vivo, Setaria viridis; details: Preemergence; for Green foxtail plant response rating (0 to 100 scale): Rate 250 g/ha; for Plant response rating, Green foxtail: 0 to 100 scale where 0 is no effect and 100 is complete control
Italian ryegrass = experiment: Test E Italian ryegrass; type: in vivo, Lolium multiflorum; details: Preemergence; for I. Ryegrass plant response rating (0 to 100 scale): Rate 250 g/ha; for Plant response rating, I. Ryegrass: 0 to 100 scale where 0 is no effect and 100 is complete control
winter wheat [2] = experiment: Test E winter wheat; type: in vivo, Triticum aestivum; details: Preemergence; for Wheat (winter) plant response rating (0 to 100 scale): Rate 250 g/ha; for Plant response rating, Wheat (winter): 0 to 100 scale where 0 is no effect and 100 is complete control
wild oat = experiment: Test E wild oat; type: in vivo, Avena fatua; details: Preemergence; for Wild oat plant response rating (0 to 100 scale): Rate 250 g/ha; for Plant response rating, Wild oat: 0 to 100 scale where 0 is no effect and 100 is complete control
winter barley = experiment: Test E winter barley; type: in vivo, Hordeum vulgare; details: Preemergence; for Barley (winter) plant response rating (0 to 100 scale): Rate 250 g/ha; for Plant response rating, Barley (winter): 0 to 100 scale where 0 is no effect and 100 is complete control
[3] = Preemergence, Rate 62 g/ha, scale of 0 to 10 where 0 is no effect and 10 is complete control
[4] = Preemergence, Rate 125 g/ha, 10 is complete control
[5] = Preemergence, Rate 250 g/ha, scale 0 to 10, 0 is no effect, 10 is complete control
[6] = Preemergence, Rate 500 g/ha, scale of 0 to 10 where 0 is no effect and 10 is complete control
[7] = Rate 62 g/ha, Postemergence, scale of 0 to 10 where 0 is no effect and 10 is complete control
[8] = Rate 125 g/ha, Postemergence, scale 0 to 10
[9] = Rate 500 g/ha, Postemergence, scale 0 to 10
[10] = Rate 62 g/ha, headed Pre-emergence (flood test species), scale 0 to 10 (0 no effect, 10 complete control)
[11] = Rate 125 g/ha, Pre-emergence, flood test species, scale 0 to 10 where 0 is no effect and 10 is complete control
[12] = Rate 250 g/ha, Pre-emergence, flood-test species, scale 0 to 10, 0 is no effect, 10 is complete control
[13] = Rate 500 g/ha, Pre-emergence, flood test species, scale 0 to 10 (0 no effect, 10 complete control)
[14] = headed Pre-emergence (flood test species), scale 0 to 10 (0 no effect, 10 complete control)
[15] = Rate 1000 g/ha, 0 is no effect and 100 is complete control
[16] = Postemergence, Rate 125 g/ha, scale of 0 to 10 where 0 is no effect and 10 is complete control
[17] = Preemergence, Rate 500 g/ha, scale 0 to 10 (0 no effect, 10 complete control)
[18] = Rate 250 g/ha, Postemergence, scale 0 to 10, 0 is no effect, 10 is complete control

CC(C)N(C(=O)n1oc(=O)n(-c2ccc(OC(F)(F)F)cc2)c1=O)c1ccc(F)cc1 [Compound 202]
Cocklebur plant response rating (cocklebur; [3]): 0 | Cocklebur plant response rating (0 to 10 scale) (cocklebur; [4]): 0 | Cocklebur plant response rating (cocklebur; [5]): 0 | Plant response rating, Cocklebur (cocklebur; [6]): 0 | Cocklebur plant response rating (cocklebur; [7]): 0 | Cocklebur plant response rating (cocklebur; [8]): 0 | Plant response rating (0 to 10; 0 is no effect, 10 is complete control), Cocklebur (cocklebur; Rate 250 g/ha, Postemergence): 2 | Cocklebur plant response rating (cocklebur; [9]): 2 | Sugarbeets plant response rating (sugar beet; [3]): 0 | Sugarbeets plant response rating (0 to 10 scale) (sugar beet; [4]): 0 | Sugarbeets plant response rating (sugar beet; [5]): 3 | Plant response rating, Sugarbeets (sugar beet; [6]): 1 | Sugarbeets plant response rating (sugar beet; [7]): 0 | Sugarbeets plant response rating (sugar beet; [8]): 3 | Plant response rating (0 to 10; 0 is no effect, 10 is complete control), Sugarbeets (sugar beet; Rate 250 g/ha, Postemergence): 4 | Sugarbeets plant response rating (sugar beet; [9]): 4 | S. Flatsedge plant response rating (smallflower flatsedge; [10]): 0 | S. Flatsedge plant response rating (smallflower flatsedge; [11]): 0 | S. Flatsedge plant response rating (smallflower flatsedge; [12]): 0 | S. Flatsedge plant response rating (smallflower flatsedge; [13]): 0 | Barnyardgrass plant response rating (bamyardgrass; [10]): 0 | Barnyardgrass plant response rating (bamyardgrass; [11]): 0 | Barnyardgrass plant response rating (bamyardgrass; [12]): 0 | Plant response rating, Barnyardgrass (bamyardgrass; [14]): 0 | Plant response rating, Wheat (winter) (winter wheat [1]; [15]): 60 | Plant response rating, Wheat (winter) (winter wheat [1]; Rate 500 g/ha, 0 is no effect, 100 is complete control): 55 | Blackgrass plant response rating (0 to 100 scale) (blackgrass): 30 | Plant response rating, Blackgrass (blackgrass; Rate 500 g/ha): 50 | Plant response rating, Blackgrass (blackgrass; Rate 1000 g/ha): 30 | Green foxtail plant response rating (0 to 100 scale) (green foxtail): 70 | Plant response rating, Green foxtail (green foxtail; Rate 500 g/ha): 85 | Plant response rating, Green foxtail (green foxtail; Rate 1000 g/ha): 100 | I. Ryegrass plant response rating (0 to 100 scale) (Italian ryegrass): 30 | Plant response rating, I. Ryegrass (Italian ryegrass; Rate 500 g/ha): 60 | Plant response rating, I. Ryegrass (Italian ryegrass; Rate 1000 g/ha): 60 | Wheat (winter) plant response rating (0 to 100 scale) (winter wheat [2]): 50 | Plant response rating, Wheat (winter) (winter wheat [2]; Rate 500 g/ha): 40 | Plant response rating, Wheat (winter) (winter wheat [2]; Rate 1000 g/ha): 70 | Wild oat plant response rating (0 to 100 scale) (wild oat): 50 | Plant response rating, Wild oat (wild oat; Rate 500 g/ha): 60 | Plant response rating, Wild oat (wild oat; Rate 1000 g/ha): 80 | Barley (winter) plant response rating (0 to 100 scale) (winter barley): 20 | Plant response rating, Barley (winter) (winter barley; Rate 500 g/ha): 40 | Plant response rating, Barley (winter) (winter barley; Rate 1000 g/ha): 70

CC(C)N(Cc1ccccc1)C(=O)n1oc(=O)n(C(C)C)c1=O [Compound 165]
Cocklebur plant response rating (cocklebur; [16]): 0 | Cocklebur plant response rating (cocklebur; [3]): 0 | Cocklebur plant response rating (0 to 10 scale) (cocklebur; [4]): 0 | Cocklebur plant response rating (cocklebur; [5]): 0 | Cocklebur plant response rating (cocklebur; [17]): 0 | Cocklebur plant response rating (cocklebur; [7]): 0 | Plant response rating, Cocklebur (cocklebur; [18]): 0 | Cocklebur plant response rating (cocklebur; [9]): 0 | Sugarbeets plant response rating (sugar beet; [16]): 0 | Sugarbeets plant response rating (sugar beet; [3]): 0 | Sugarbeets plant response rating (0 to 10 scale) (sugar beet; [4]): 4 | Sugarbeets plant response rating (sugar beet; [5]): 4 | Sugarbeets plant response rating (sugar beet; [17]): 4 | Sugarbeets plant response rating (sugar beet; [7]): 0 | Plant response rating, Sugarbeets (sugar beet; [18]): 3 | Sugarbeets plant response rating (sugar beet; [9]): 6 | S. Flatsedge plant response rating (smallflower flatsedge; [10]): 0 | S. Flatsedge plant response rating (smallflower flatsedge; [11]): 0 | S. Flatsedge plant response rating (smallflower flatsedge; [12]): 0 | S. Flatsedge plant response rating (smallflower flatsedge; [13]): 0 | Barnyardgrass plant response rating (bamyardgrass; [10]): 0 | Barnyardgrass plant response rating (bamyardgrass; [11]): 0 | Barnyardgrass plant response rating (bamyardgrass; [12]): 0 | Plant response rating, Barnyardgrass (bamyardgrass; [14]): 1 | Plant response rating, Wheat (winter) (winter wheat [1]; [15]): 85 | Plant response rating, Wheat (winter) (winter wheat [1]; Rate 500 g/ha, 0 no effect, 100 complete control): 65 | Wheat (winter) plant response rating (winter wheat [1]; Rate 250 g/ha, 0 to 100 scale where 0 is no effect and 100 is complete control): 40 | Blackgrass plant response rating (0 to 100 scale) (blackgrass): 40 | Plant response rating, Blackgrass (blackgrass; Rate 500 g/ha): 60 | Plant response rating, Blackgrass (blackgrass; Rate 1000 g/ha): 100 | Green foxtail plant response rating (0 to 100 scale) (green foxtail): 50 | Plant response rating, Green foxtail (green foxtail; Rate 500 g/ha): 55 | Plant response rating, Green foxtail (green foxtail; Rate 1000 g/ha): 65 | I. Ryegrass plant response rating (0 to 100 scale) (Italian ryegrass): 60 | Plant response rating, I. Ryegrass (Italian ryegrass; Rate 500 g/ha): 55 | Plant response rating, I. Ryegrass (Italian ryegrass; Rate 1000 g/ha): 70 | Wheat (winter) plant response rating (0 to 100 scale) (winter wheat [2]): 40 | Plant response rating, Wheat (winter) (winter wheat [2]; Rate 500 g/ha): 50 | Plant response rating, Wheat (winter) (winter wheat [2]; Rate 1000 g/ha): 70 | Wild oat plant response rating (0 to 100 scale) (wild oat): 55 | Plant response rating, Wild oat (wild oat; Rate 500 g/ha): 60 | Plant response rating, Wild oat (wild oat; Rate 1000 g/ha): 70 | Barley (winter) plant response rating (0 to 100 scale) (winter barley): 20 | Plant response rating, Barley (winter) (winter barley; Rate 500 g/ha): 55 | Plant response rating, Barley (winter) (winter barley; Rate 1000 g/ha): 50
